Laboratory results: ChEMBL document CHEMBL1148759, “Isolation, characterization, and biological evaluation of syn and anti diastereomers of [(99m)Tc]technetium depreotide: a somatostatin receptor binding tumor imaging agent” (J Med Chem, 2007)
Where a SMILES comes first, the peptide text is derived from it. [ ]: non-standard residue; d: D form. The star is where a group is joined. X1 = NCCCC[C@H](NC(=O)[C@H](CS)NC(=O)[C@H](CCCCN)NC(=O)[C@@H](N)CNC(=O)C*)C(N)=O; NMeF = CN[C@@H](Cc1ccccc1)C(=O)O; hCys = N[C@@H](CCS)C(=O)O

Test: Displacement of [125I]somatostatin from SSTR in rat AR42J cells
Assay type: cell-based
Details: ar-42j

`CC(C)[C@@H]1NC(=O)[C@H](CCCCN)NC(=O)[C@@H](Cc2c[nH]c3ccccc23)NC(=O)[C@H](Cc2ccc(O)cc2)NC(=O)[C@H](Cc2ccccc2)N(C)C(=O)[C@H](CCSCC(=O)NC[C@H](N)C(=O)N[C@@H](CCCCN)C(=O)N[C@@H](CS)C(=O)N[C@@H](CCCCN)C(N)=O)NC1=O` [DEPREOTIDE] (cyclo([hCys](X1)[NMeF]Y[dW]KV)) gave an IC50 of 7.4 nM.
